Source: ChEMBL document CHEMBL4196120, “Inhibition of Connexin Hemichannels by New Amphiphilic Aminoglycosides without Antibiotic Activity” (ACS Med Chem Lett, 2018)
Values after ≈ are worked out from the molar mass of the structure shown. Active and inactive are the calls of the source. The rule behind the calls is not given here.

What was measured:
[1] = target: Gap junction beta-2 protein (Homo sapiens) (UniProt P29033); test: Inhibition of recombinant human Cx26 expressed in Escherichia coli LB2003 assessed as reduction in cell growth measured after 18 hrs
HeLa [2] = test: Cytotoxicity against human HeLa cells assessed as reduction in cell viability up to 100 ug/ml after 24 hrs by MTT assay; type: cell-based
[3] = target: Gap junction beta-2 protein (Homo sapiens) (UniProt P29033); test: Inhibition of recombinant human Cx26 expressed in Escherichia coli LB2003 assessed as reduction in cell growth at 100 uM measured after 18 hrs
HeLa [4] = test: Cytotoxicity against human HeLa cells assessed as reduction in cell viability at 100 ug/ml after 24 hrs by MTT assay relative to control; type: cell-based
Cx26 = test: Ratio of compound effect for cytotoxicity against human HeLa cells to IC50 for recombinant human Cx26 expressed in Escherichia coli LB2003; type: toxicity
Staphylococcus aureus = test: Toxicity against Staphylococcus aureus ATCC 25923 measured after 18 to 24 hrs; type: organism-based; conditions: in vivo

| SMILES | Imax [1] [%] | Activity (HeLa [2]) | inhibition [3] | Activity (HeLa [4]) [%] | selectivity ratio (Cx26) | MIC (Staphylococcus aureus) [µg/mL] |
| --- | --- | --- | --- | --- | --- | --- |
| NC[C@H]1O[C@H](O[C@H]2[C@H](O)[C@@H](O[C@@H]3O[C@H](COCc4ccccc4)[C@@H](OCc4ccccc4)[C@H](N)[C@H]3O)[C@H](N)C[C@@H]2N)[C@H](O)[C@@H](O)[C@@H]1O | 99 | Non-Toxic | – | – | – | – |
| COc1ccc(COC[C@H]2O[C@@H](O[C@@H]3[C@@H](O)[C@H](O[C@H]4O[C@H](CN)[C@@H](O)[C@H](O)[C@H]4O)[C@@H](N)C[C@H]3N)[C@H](O)[C@@H](N)[C@@H]2OCc2ccc(OC)cc2)cc1 | 94 | Non-Toxic | – | – | – | – |
| CCCCOC[C@H]1O[C@@H](O[C@@H]2[C@@H](O)[C@H](O[C@H]3O[C@H](CN)[C@@H](O)[C@H](O)[C@H]3O)[C@@H](N)C[C@H]2N)[C@H](O)[C@@H](N)[C@@H]1OCCCC | 99 | Non-Toxic | – | – | – | – |
| CCCCCCO[C@H]1[C@H](N)[C@@H](O)[C@H](O[C@@H]2[C@@H](O)[C@H](O[C@H]3O[C@H](CN)[C@@H](O)[C@H](O)[C@H]3O)[C@@H](N)C[C@H]2N)O[C@@H]1CO | 99 | Non-Toxic | – | – | – | – |
| CCCCCCCCOC[C@H]1O[C@@H](O[C@@H]2[C@@H](O)[C@H](O[C@H]3O[C@H](CN)[C@@H](O)[C@H](O)[C@H]3O)[C@@H](N)C[C@H]2N)[C@H](O)[C@@H](N)[C@@H]1OCCCCCCCC | 99 | Non-Toxic | – | – | – | – |
| CCCCCCOC[C@H]1O[C@@H](O[C@@H]2[C@@H](O)[C@H](O[C@H]3O[C@H](CN)[C@@H](O)[C@H](O)[C@H]3O)[C@@H](N)C[C@H]2N)[C@H](O)[C@@H](N)[C@@H]1OCCCCCC | 99 | Non-Toxic | – | – | – | – |
| CO[C@@H]1[C@@H](O[C@@H]2O[C@H](COCc3ccccc3)[C@@H](OCc3ccccc3)[C@H](N)[C@H]2OC)[C@H](N)C[C@H](N)[C@H]1O[C@H]1O[C@H](CN)[C@@H](OC)[C@H](OC)[C@H]1OC | 99 | Non-Toxic | – | – | – | – |
| CO[C@@H]1[C@@H](O[C@@H]2O[C@H](CO)[C@@H](O)[C@H](N)[C@H]2OC)[C@H](N)C[C@H](N)[C@H]1O[C@H]1O[C@H](CN)[C@@H](OC)[C@H](OC)[C@H]1OC | – | Non-Toxic | inactive | – | – | – |
| NC[C@H]1O[C@H](O[C@H]2[C@H](O)[C@@H](O[C@@H]3O[C@H](COCc4ccc5ccccc5c4)[C@@H](OCc4ccc5ccccc5c4)[C@H](N)[C@H]3O)[C@H](N)C[C@@H]2N)[C@H](O)[C@@H](O)[C@@H]1O | 94 | – | – | 40 to 60 | ≤ 20 | – |
| NC[C@H]1O[C@H](O[C@H]2[C@H](O)[C@@H](O[C@@H]3O[C@H](COCc4cccc5ccccc45)[C@@H](OCc4cccc5ccccc45)[C@H](N)[C@H]3O)[C@H](N)C[C@@H]2N)[C@H](O)[C@@H](O)[C@@H]1O | 94 | Non-Toxic | – | – | – | 64 (≈ 83.7 µM) |
| Cc1ccc(COC[C@H]2O[C@@H](O[C@@H]3[C@@H](O)[C@H](O[C@H]4O[C@H](CN)[C@@H](O)[C@H](O)[C@H]4O)[C@@H](N)C[C@H]3N)[C@H](O)[C@@H](N)[C@@H]2OCc2ccc(C)cc2)cc1 | 94 | Non-Toxic | – | – | – | – |
| NC[C@H]1O[C@H](O[C@H]2[C@H](O)[C@@H](O[C@@H]3O[C@H](COCc4ccc(Cl)cc4)[C@@H](OCc4ccc(Cl)cc4)[C@H](N)[C@H]3O)[C@H](N)C[C@@H]2N)[C@H](O)[C@@H](O)[C@@H]1O | 94 | Non-Toxic | – | – | – | – |
| NC[C@H]1O[C@H](O[C@H]2[C@H](O)[C@@H](O[C@@H]3O[C@H](COCc4cccc(-c5ccccc5)c4)[C@@H](OCc4cccc(-c5ccccc5)c4)[C@H](N)[C@H]3O)[C@H](N)C[C@@H]2N)[C@H](O)[C@@H](O)[C@@H]1O | 94 | – | – | 40 to 60 | ≤ 20 | 16 (≈ 19.6 µM) |
| CCCCCCCCCOC[C@H]1O[C@@H](O[C@@H]2[C@@H](O)[C@H](O[C@H]3O[C@H](CN)[C@@H](O)[C@H](O)[C@H]3O)[C@@H](N)C[C@H]2N)[C@H](O)[C@@H](N)[C@@H]1OCCCCCCCCC | 99 | Non-Toxic | – | – | – | – |
| NC[C@H]1O[C@H](O[C@H]2[C@H](O)[C@@H](O[C@@H]3O[C@H](COCc4ccc(F)cc4)[C@@H](OCc4ccc(F)cc4)[C@H](N)[C@H]3O)[C@H](N)C[C@@H]2N)[C@H](O)[C@@H](O)[C@@H]1O | 94 | – | – | 40 to 60 | ≤ 20 | – |
